Measurements from patent publication US20080113938A1, “ACCELERATOR FOR MINERAL ABSORPTION AND USE THEREOF” (KABUSHIKI KAISHA HAYASHIBARA SEIBUTSU KAGAKU KENKYUJO, priority 2003, published 2008).
Marks after values point to notes of the source that are not given here.

Key:
[1] = tested on: reversed canal sac of intestinum ileum; experiment: Calcium absorption in reversed canal sac, intestinum ileum; type: cell-based, Wister rats
Protocol: Experiment 1 confirmed that cyclic tetrasaccharide promotes mineral absorption in alimentary canal of rat concretely in intestinum ileum or its upper alimentary canal. The following experiment was carried out in order to determine a part of alimentary canal, cyclic tetrasaccharide acts on to promote mineral absorption. Twenty heads of Wister rats (nine week aged male, commercialized by Charlesriver Corporation, Kanagawa, Japan) were bred for three days with a usual solid feed for rats. Under the anesthetization with ether, alimentary canal was taken out from each rat which had been bled from a jugular vein and treated by abdominal operation. Each alimentary canal was divided into jejunum, intestinum ileum and colon/rectum and washed with physiological saline to remove the content. The resulting jejunum specimen, intestinum ileum specimen or colon/rectum specimen was cut off to prepare each midsection sized with about 10 cm in length. The resulting midsection of each specimen was reversed using a glass rod and immersed in a physiological saline babbled with gas consisting of 95% oxygen and 5% carbon dioxide. The resultant was cut into pieces sized with 5 cm in length and each piece was tied with a suture thread at both ends to prepare a reversed canal sac, and injected with about 0.5 ml of an internal sac solution containing 30 mM Tris-HCl buffer (pH7.4), 125 mM sodium chloride, 4 mM potassium chloride, 10 mM glucose and 1.25 mM calcium chloride (dihydrate) with a syringe and weighed. The resulting sac was immersed in an external sac solution (being bubbled with the gas consisting of 95% oxygen and 5% carbon dioxide) containing 50 mM, 100 mM or 200 mM of the same cyclic tetrasaccharide to Experiment 1 in the above solution containing 30 mM Tris-HCl buffer (pH7.4), 125 mM sodium chloride, 4 mM potassium chloride, 10 mM glucose and 1.25 mM calcium chloride (dihydrate). At 15 or 30 minutes after the immersion, the reversed canal sac was taken out from the solution and washed with distilled water. The internal sac solution was collected from the resulting sac and admixed with distilled water to give a final volume of 25 ml. The resulting solution was subjected to a calorimetric measurement of calcium content using “CALCIUM TEST C WAKO™” (commercialized by Wako Pure Chemicals Corporation, Osaka, Japan). As a negative control, an external sac solution without saccharides. As a positive control, an external sac solution containing 200 mM maltitol, reported to have the effect on promoting mineral absorption though intestinal canal, instead of cyclic tetrasaccharide were prepared and carried out in the same manner. Speed of calcium absorption (nmol/min·cm^2) and its relative values defining the value of negative control as 100 were calculated.

femur = experiment: Dry weight, ash, calcium, magnesium and phosphorus of the femur of rats; type: in vivo, Wister rats
Source text: Forty of Wister rats weighing 110 to 120 g (five-weeks aged male, commercialized by Charles River Japan Inc., Yokohama, Japan) were bred with a feed containing ingredients (%) shown in Table 1 for one week in order to be familiarized. The familiarized rats were randomly divided into four groups with ten rats each. Each group was experimentally bred for eight weeks with either a feed without cyclic tetrasaccharide shown in Table 1 (hereinafter, it is called as “basic feed”), or another feed of basic feed supplemented with 1%, 2% or 5% on a dry solid basis, of cyclic tetrasaccharide in a crystalline anhydrous powder form with a purity of 99.5%, prepared in the following Example A-3. These basic feed and three kinds of feeds with cyclic tetrasaccharide were prepared to contain 44.75% of the total amount of cyclic tetrasaccharide and corn starch in each feed. From one week before the end of the breeding test, in order to determine the metabolism of calcium, magnesium, iron, sodium, potassium and phosphorus (hereinafter, may be called “minerals” in all), rats in the all groups were fed with the four types of feeds supplemented with 0.5% of chromium oxide as a non-absorbed marker for the minerals. The rats were bred at 25° C. in a manner of freely allowing to take feeds and water under a condition of 12 hours regular interval between of light and shade. After completion of experimental breeding, all rats were individually weighed to calculate the average of weight and further calculate the rate of increased weight for each group.
Two days before the end of the breeding test, rats were placed into a gauge for measuring metabolism to collect their excrement in two days. The resulting excrement was subjected to the measurement of the contents of cyclic tetrasaccharide, each mineral, and chromium. After the breeding test, the rats were anatomized in an anesthetized condition to take out their alimentary canals including jejunum, intestinum ileum, appendix and colon/rectum. After the resulting alimentary canals were weighed, their contents were also weighed and subjected to the measurement of the amount of cyclic tetrasaccharide, minerals and chromium. The rats, which had been taken out their alimentary canals, were dislocated at their cervical vertebrae and taken out their femurs from right legs. The resulting femurs were subjected to the measurement of the amount of ashes, calcium, magnesium and phosphorus. The following(s) explain the methods of quantitative analysis of cyclic tetrasaccharide and the methods of measurement of minerals and chromium.
Two grams of a feed was preciously weighed in a porcelain crucible, heated to carbonize, and heated at 600° C. to incinerate. After weighed, the resulting test samples were admixed with hydrochloric acid in a precious analysis grade (concentration of 20%, commercialized by Wako Pure Chemicals, Co., Ltd., Osaka, Japan) to give a final concentration of 1%. They were subjected to atomic absorption spectrometry (“Zeeman5100™”, commercialized by PerkinElmer); in the case of measurement of chromium, they were subjected to a flameless type one. In the case of measurement of phosphorus, they were subjected to usual molybdenum blue absorptiometry. On the other hand, 0.1 g of each of the contents of jejunum, intestinum ileum, appendix, colon/rectum, and excrement was subjected to wet-type incineration to prepare test samples similarly as in the above case of feed, and the test samples were quantified. The right femurs taken out from the anatomized rats were dried at 105° C. for 15 hours and measured as a dry weight. The resulting dried femurs were precisely weighed in a porcelain crucible, and incinerated similarly as in the case of the feed. The resultants were weighed and quantified for calcium, magnesium and phosphorus.

[2] = 50 mM saccharide in external sac solution
[3] = 100 mM saccharide in external sac solution
[4] = 200 mM saccharide in external sac solution
[5] = feed supplemented with 1% cyclic tetrasaccharide
[6] = feed supplemented with 2% cyclic tetrasaccharide
[7] = feed supplemented with 5% cyclic tetrasaccharide

For `OC[C@H]1O[C@@H]2OC[C@H]3O[C@H](O[C@@H]4[C@@H](O)[C@@H](OC[C@H]5O[C@H](O[C@H]([C@H]2O)[C@@H]1O)[C@H](O)[C@@H](O)[C@@H]5O)O[C@H](CO)[C@H]4O)[C@H](O)[C@@H](O)[C@@H]3O` [cyclic tetrasaccharide, cyclo{>6)-α-D-glucopyranosyl-(1>3)-α-D-glucopyranosyl-(1>6)-α-D-glucopyranosyl-(1>3)-α-D-glucopyranosyl-(1>}], the “Absorption speed of calcium in alimentary canal sac, Intestinum ileum” value (from here on “Absorption speed of calcium”) [1, 2] was 33.6 *※ nmol/min · cm^2, the “Relative value of calcium absorption speed (control = 100), Intestinum ileum” value [1, 2] was “(124)” and the “Absorption speed of calcium” value [1, 3] was 46.0 *※ nmol/min · cm^2. For the same molecule, the “Relative value of calcium absorption speed (control = 100), Intestinum ileum” value [1, 3] was “(167)”, the “Absorption speed of calcium” value [1, 4] was 52.9 *※ nmol/min · cm^2 and the “Relative value of calcium absorption speed (control = 100), Intestinum ileum” value [1, 4] was “(195)”. For the same molecule, the “promotion of calcium absorption in intestinum ileum” value ([1]; reversed sac) was “strongly promoted”, the “amounts of dried bone weight, ash, calcium, magnesium and phosphorus” value (femur; comparing with the control, 1%, 2%, 5% feeds) was “significantly increased” and the Amount of ash (femur; [5]) was 0.64 * g/g dry femur. The “Amount of calcium in femur” value (femur; [5]) was 217 * ^ mg/g dry femur, the “Amount of magnesium in femur” value (femur; [5]) was 4.3 * mg/g dry femur and the “Amount of phosphorus in femur” value (femur; [5]) was 115 * ^ mg/g dry femur. For the same molecule, the “Dry weight of femur” value (femur; [5]) was 0.68 * g, the Amount of ash (femur; [6]) was 0.65 * g/g dry femur and the “Amount of calcium in femur” value (femur; [6]) was 225 * ^ mg/g dry femur. For the same molecule, the “Amount of magnesium in femur” value (femur; [6]) was 4.4 * mg/g dry femur, the “Amount of phosphorus in femur” value (femur; [6]) was 116 * ^ mg/g dry femur and the “Dry weight of femur” value (femur; [6]) was 0.71 * g. For the same molecule, the Amount of ash (femur; [7]) was 0.66 * g/g dry femur, the “Amount of calcium in femur” value (femur; [7]) was 240 * ^ mg/g dry femur and the “Amount of magnesium in femur” value (femur; [7]) was 4.5 * mg/g dry femur. The “Amount of phosphorus in femur” value (femur; [7]) was 118 * ^ mg/g dry femur and the “Dry weight of femur” value (femur; [7]) was 0.71 * g.
